Test results reported in BindingDB's records for doi:10.1016/0960-894X(95)00327-P (1995).

How the values were obtained:
[1] = molecular target: Gastrin/cholecystokinin type B receptor (Cavia porcellus); assay: Binding activity towards cholecystokinin-B (CCK-B) receptor in guinea pig cortex
[2] = molecular target: Gastrin/cholecystokinin type B receptor (Cavia porcellus); assay: as above; remark: listed apart in the source

Row | Structure (SMILES) | IC50 [1] | IC50 [2]
1 | Cc1ccc2c(c1)N(CC(=O)NC(C)(C)C)C(=O)[C@H](NC(=O)Nc1cccc(-c3nnn[nH]3)c1)C[C@@H]2Cc1ccccc1 [2-((3R,5S)-5-Benzyl-8-methyl-2-oxo-3-{3-[3-(1H-tetrazol-5-yl)-phenyl]-ureido}-2,3,4,5-tetrahydro-benzo[b]azepin-1-yl)-N-tert-butyl-acetamide] | 1.7 nM | –
2 | Cc1ccc2c(c1)N(CC(=O)NC(C)(C)C)C(=O)[C@H](NC(=O)Nc1cccc(C(=O)NS(=O)(=O)c3ccccc3)c1)C[C@@H]2c1ccccc1 [2-{(3R,5R)-3-[3-(3-Benzenesulfonylaminocarbonyl-phenyl)-ureido]-8-methyl-2-oxo-5-phenyl-2,3,4,5-tetrahydro-benzo[b]azepin-1-yl}-N-tert-butyl-acetamide] | 4.8 nM | –
3 | Cc1ccc2c(c1)N(CC(=O)NC(C)(C)C)C(=O)[C@H](NC(=O)Nc1cccc(C(=O)O)c1)C[C@@H]2C1CCCCC1 [3-{3-[(3R,5R)-1-(tert-Butylcarbamoyl-methyl)-5-cyclohexyl-8-methyl-2-oxo-2,3,4,5-tetrahydro-1H-benzo[b]azepin-3-yl]-ureido}-benzoic acid] | – | 0.1 nM
4 | COC(=O)c1cccc(NC(=O)N[C@@H]2C[C@H](c3ccccc3)c3ccc(C)cc3N(CC(=O)NC(C)(C)C)C2=O)c1 [3-{3-[(3R,5R)-1-(tert-Butylcarbamoyl-methyl)-8-methyl-2-oxo-5-phenyl-2,3,4,5-tetrahydro-1H-benzo[b]azepin-3-yl]-ureido}-benzoic acid methyl ester] | 1.4 nM | –
5 | Cc1ccc2c(c1)N(CC(=O)NC(C)(C)C)C(=O)[C@H](NC(=O)Nc1cccc(C(=O)O)c1)C[C@@H]2c1ccccc1 [3-{3-[(3R,5R)-1-(tert-Butylcarbamoyl-methyl)-8-methyl-2-oxo-5-phenyl-2,3,4,5-tetrahydro-1H-benzo[b]azepin-3-yl]-ureido}-benzoic acid] | 2.7 nM | –
6 | Cc1ccc2c(c1)N(CC(=O)NC(C)(C)C)C(=O)[C@H](NC(=O)Nc1cccc(C(=O)NS(=O)(=O)c3ccccc3C)c1)C[C@@H]2c1ccccc1 [N-tert-Butyl-2-((3R,5R)-8-methyl-2-oxo-5-phenyl-3-{3-[3-(toluene-2-sulfonylaminocarbonyl)-phenyl]-ureido}-2,3,4,5-tetrahydro-benzo[b]azepin-1-yl)-acetamide] | 7.9 nM | –
7 | Cc1ccc2c(c1)N(CC(=O)NC(C)(C)C)C(=O)[C@H](NC(=O)Nc1cccc(C(=O)NS(=O)(=O)Cc3ccccc3)c1)C[C@@H]2c1ccccc1 [N-tert-Butyl-2-{(3R,5R)-8-methyl-2-oxo-5-phenyl-3-[3-(3-phenylmethanesulfonylaminocarbonyl-phenyl)-ureido]-2,3,4,5-tetrahydro-benzo[b]azepin-1-yl}-acetamide] | 4.2 nM | –
8 | Cc1ccc2c(c1)N(CC(=O)NC(C)(C)C)C(=O)[C@H](NC(=O)Nc1cccc(C(=O)NS(=O)(=O)C(F)(F)F)c1)C[C@@H]2c1ccccc1 [N-tert-Butyl-2-{(3R,5R)-8-methyl-2-oxo-5-phenyl-3-[3-(3-trifluoromethanesulfonylaminocarbonyl-phenyl)-ureido]-2,3,4,5-tetrahydro-benzo[b]azepin-1-yl}-acetamide] | 5.1 nM | –

Further lines, results first:

Row | IC50 [1] | IC50 [2] | Structure (SMILES)
9 | 0.6 nM | – | COC(=O)c1cccc(NC(=O)N[C@@H]2C[C@H](C3CCCCC3)c3ccc(C)cc3N(CC(=O)NC(C)(C)C)C2=O)c1 [3-{3-[(3R,5R)-1-(tert-Butylcarbamoyl-methyl)-5-cyclohexyl-8-methyl-2-oxo-2,3,4,5-tetrahydro-1H-benzo[b]azepin-3-yl]-ureido}-benzoic acid methyl ester]
10 | 0.22 nM | – | Cc1ccc2c(c1)N(CC(=O)NC(C)(C)C)C(=O)[C@H](NC(=O)Nc1cccc(-c3nnn[nH]3)c1)C[C@@H]2C1CCCCC1 [N-tert-Butyl-2-((3R,5R)-5-cyclohexyl-8-methyl-2-oxo-3-{3-[3-(1H-tetrazol-5-yl)-phenyl]-ureido}-2,3,4,5-tetrahydro-benzo[b]azepin-1-yl)-acetamide]
11 | 0.98 nM | – | Cc1ccc2c(c1)N(CC(=O)NC(C)(C)C)C(=O)[C@H](NC(=O)Nc1cccc(-c3nnn[nH]3)c1)C[C@@H]2C(C)C [N-tert-Butyl-2-((3R,5R)-5-isopropyl-8-methyl-2-oxo-3-{3-[3-(1H-tetrazol-5-yl)-phenyl]-ureido}-2,3,4,5-tetrahydro-benzo[b]azepin-1-yl)-acetamide]
12 | 0.81 nM | – | Cc1ccc2c(c1)N(CC(=O)NC(C)(C)C)C(=O)[C@H](NC(=O)Nc1cccc(-c3nnn[nH]3)c1)C[C@@H]2c1ccccc1 [N-tert-Butyl-2-((3R,5R)-8-methyl-2-oxo-5-phenyl-3-{3-[3-(1H-tetrazol-5-yl)-phenyl]-ureido}-2,3,4,5-tetrahydro-benzo[b]azepin-1-yl)-acetamide]
13 | 1 nM | – | CCS(=O)(=O)NC(=O)c1cccc(NC(=O)N[C@@H]2C[C@H](c3ccccc3)c3ccc(C)cc3N(CC(=O)NC(C)(C)C)C2=O)c1 [N-tert-Butyl-2-{(3R,5R)-3-[3-(3-ethanesulfonylaminocarbonyl-phenyl)-ureido]-8-methyl-2-oxo-5-phenyl-2,3,4,5-tetrahydro-benzo[b]azepin-1-yl}-acetamide]
14 | 0.88 nM | – | Cc1ccc2c(c1)N(CC(=O)NC(C)(C)C)C(=O)[C@H](NC(=O)Nc1cccc(C(=O)NS(C)(=O)=O)c1)C[C@@H]2c1ccccc1 [N-tert-Butyl-2-{(3R,5R)-3-[3-(3-methanesulfonylaminocarbonyl-phenyl)-ureido]-8-methyl-2-oxo-5-phenyl-2,3,4,5-tetrahydro-benzo[b]azepin-1-yl}-acetamide]
15 | 0.26 nM | – | Cc1ccc2c(c1)N(CC(=O)NC(C)(C)C)C(=O)[C@H](NC(=O)Nc1cccc(C(=O)NS(C)(=O)=O)c1)C[C@@H]2C1CCCCC1 [N-tert-Butyl-2-{(3R,5R)-5-cyclohexyl-3-[3-(3-methanesulfonylaminocarbonyl-phenyl)-ureido]-8-methyl-2-oxo-2,3,4,5-tetrahydro-benzo[b]azepin-1-yl}-acetamide]
